The target in this test is Tyrosine-protein kinase SYK (Homo sapiens, UniProt P43405). Description: Binding affinity to Syk tSH2 domain by SPR binding assay. On the technique in general: Surface plasmon resonance follows binding to a sensor surface in real time, without labels.

From ChEMBL document CHEMBL1143983, “A photoswitchable ITAM peptidomimetic: synthesis and real time surface plasmon resonance (SPR) analysis of the effects of cis-trans isomerization on binding” (Bioorg Med Chem, 2008) come the findings set out here.

Structures are written as SMILES.

Usually Kd stands for the equilibrium constant for the complex coming apart.

Compound `CC(=O)N[C@@H](Cc1ccc(OP(=O)(O)O)cc1)C(=O)N[C@H](C(=O)NCC(=O)N[C@@H](CC(C)C)C(=O)NCC(=O)NCc1ccc(/N=N/c2ccc(C(=O)NCC(=O)N[C@@H](Cc3ccc(OP(=O)(O)O)cc3)C(=O)N[C@@H](CCC(=O)O)C(=O)N[C@H](C(=O)N[C@@H](CC(C)C)C(N)=O)[C@H](C)O)cc2)cc1)[C@H](C)O` gave a dissociation constant (Kd) of 65 nM.
